Results from patent US20050112573A1, “Method of detecting toxic substance” (priority 2001, published 2005).

Tested on: yeast genes (level of expressed mRNA)
Experiment: DNA chip analysis of expressed mRNA of yeast genes after 2 h culture with a toxic chemical substance
Assay type: cell-based, Saccharomyces cerevisiae S288C
Details: for The level of expressed mRNA in the presence of chemical substance/ (ratio to absence of chemical substance): stress protein genes, DNA chip
Method: Yeast (Saccharomyces cerevtisiae S288C (α SUC2mal mel gap2 CUP1)) were cultured at 25° C. on YPD medium (yeast extract 1%, polypepton 2%, glucose 2%). One of toxic chemical substances was added to the cell at logarithmic growth phase, and the cell was further cultured for two hours. Cell was cultured without any chemical substance in the same condition, and was used as control. Concentrations of the chemical substances were defined to inhibit the growth of the yeast but not lead to death.
After the completion of cultivation, the culture was centrifuged to collect the cells. To the cells, sodium acetate buffer (50 mM sodium acetate, 10 mM EDTA, 1% SDS) was added, and the mixture was shaken at 65° C. for five minutes, followed by returning to room temperature, and obtaining the supernatant, which procedure was repeated two times. To the supernatant, ½ amount of a solution of phenol/chloroform was added, and the mixture was centrifuged to give a supernatant, which was added with an equal amount of chloroform, and the mixture was centrifuged to give a supernatant. To the supernatant, an equal amount of isopropanol containing 0.3 M sodium acetate was added, and the mixture was allowed to stand at room temperature for 30 minutes, after which the mixture was centrifuged to give a sediment of the whole RNAs. Seventy % ethanol was added to the sediment, and the mixture was again centrifuged to give a sediment, which was then dried and dissolved in water. mRNA was isolated from the whole RNAs as followings. In view of the fact that a poly A chain is attached to the 3′ terminus of mRNA, a polynucleotide having a poly T structure which was immobilized on the surface of latex beads was used to trap the mRNA, and then the mRNA was washed and eluted with spine column (Oligotex-dT30<Super>mRNA Purification Kit, Takara). Reverse transcription of the mRNA was conducted with a reverse transcriptase (Super Script II Reverse Transcriptase; catalogue No. 18064-014, GibcoBRL) using fluorescence-labeled nucleotides to give cDNAs that were introduced with Cy3-dUTP or Cy5-dUTP during the reverse transcription.
The labeled cDNAs were dissolved in TE buffer (10 mM Tris-HCl/1 mM EDTA, pH8.0), and the solution was dropped on the DNA chip containing the whole genes of yeast (DNA Chip Research Inc. Japan) so that the cDNAs were hybridized on the DNA chip at 65° C. for over 12 hours. The fluoresces intensity of the DNA chip was read with a scanner, and the ratio relative to the fluorescence intensity resulting from the absence of chemical substance was estimated as the following, which is shown in Tables 1 to 9: [formula]
In the Tables, “Intensity” indicated in the rightmost column is a value of the level of expressed mRNA of each gene in control cells as divided by the average level of the expressions of the whole genes.

In the case of `CCCCCCCCCCCCOS(=O)(=O)[O-].[Na+]` [(18), sodium lauryl sulfate], the “The level of expressed mRNA in the presence of chemical substance/ in its absence, gene YDL078C” value (yeast gene YDL078C, ratio of DNA chip fluorescence intensity to that without chemical substance) is reported as 2.0, the “The level of expressed mRNA in the presence of chemical substance/ (in its absence), gene YDL215C” value (yeast gene YDL215C, ratio of DNA chip fluorescence intensity to that without chemical substance) is reported as 1.6 and the “The level of expressed mRNA in the presence of chemical substance/The level of expressed mRNA in the absence of chemical substance” value (yeast gene YDL238C) is reported as 1.3. The “The level of expressed mRNA in the presence of chemical substance/The level of expressed mRNA in the absence of chemical substance” value (yeast gene YDR055W) was 1.9, the “The level of expressed mRNA in the presence of chemical substance/ (in its absence), gene YDR073W” value (yeast gene YDR073W, ratio of DNA chip fluorescence intensity to that without chemical substance) was 2.3 and the “The level of expressed mRNA in the presence of chemical substance/ in its absence, gene YDR079W” value (yeast gene YDR079W, energy system protein genes, 2 h culture with the chemical, ratio to control without chemical) was 1.3. The “The level of expressed mRNA in the presence of chemical substance/ (ratio to absence), gene YDR079W” value (yeast gene YDR079W, mitochondria-located protein genes, 2 h culture with chemical) was 1.3, the “The level of expressed mRNA in the presence of chemical substance/The level of expressed mRNA in the absence of chemical substance” value (yeast gene YDR084C) was 1.3 and the “The level of expressed mRNA in the presence of chemical substance/The level of expressed mRNA in the absence of chemical substance” value (yeast gene YDR085C) was 1.8. The “The level of expressed mRNA in the presence of chemical substance/The level of expressed mRNA in the absence of chemical substance” value (yeast gene YDR104C) was 1.0, the “The level of expressed mRNA in the presence of chemical substance/The level of expressed mRNA in the absence of chemical substance” value (yeast gene YDR115W) was 1.4 and the “The level of expressed mRNA in the presence of chemical substance/The level of expressed mRNA in the absence of chemical substance” value (yeast gene YDR259C) was 0.8. The “The level of expressed mRNA in the presence of chemical substance/ (in its absence), gene YDR297W” value (yeast gene YDR297W, ratio of DNA chip fluorescence intensity to that without chemical substance) was 1.9, the “The level of expressed mRNA in the presence of chemical substance/The level of expressed mRNA in the absence of chemical substance” value (yeast gene YDR315C) was 1.2 and the “The level of expressed mRNA in the presence of chemical substance/The level of expressed mRNA in the absence of chemical substance” value (yeast gene YDR358W) was 1.9. For the same molecule, the “The level of expressed mRNA in the presence of chemical substance/ (ratio to absence), gene YDR377W” value (yeast gene YDR377W, mitochondria-located protein genes, 2 h culture with chemical) was 2.5, the “The level of expressed mRNA in the presence of chemical substance/ (in its absence), gene YDR387C” value (yeast gene YDR387C, ratio of DNA chip fluorescence intensity to that without chemical substance) was 1.1 and the “The level of expressed mRNA in the presence of chemical substance/The level of expressed mRNA in the absence of chemical substance” value (yeast gene YDR388W) was 1.3. For the same molecule, the “The level of expressed mRNA in the presence of chemical substance/The level of expressed mRNA in the absence of chemical substance” value (yeast gene YDR432W) was 0.7, the “The level of expressed mRNA in the presence of chemical substance/The level of expressed mRNA in the absence of chemical substance” value (yeast gene YDR481C) was 1.4 and the “The level of expressed mRNA in the presence of chemical substance/The level of expressed mRNA in the absence of chemical substance” value (yeast gene YDR510W) was 1.5. For the same molecule, the “The level of expressed mRNA in the presence of chemical substance/ (ratio to absence of chemical substance)” value (yeast gene YEL039C) was 1.1, the “The level of expressed mRNA in the presence of chemical substance/The level of expressed mRNA in the absence of chemical substance” value (yeast gene YEL042W) was 0.8 and the “The level of expressed mRNA in the presence of chemical substance/The level of expressed mRNA in the absence of chemical substance” value (yeast gene YEL066W) was 1.1. The “The level of expressed mRNA in the presence of chemical substance/ (in its absence), gene YER015W” value (yeast gene YER015W, ratio of DNA chip fluorescence intensity to that without chemical substance) was 2.6, the “The level of expressed mRNA in the presence of chemical substance/The level of expressed mRNA in the absence of chemical substance” value (yeast gene YER039C) was 1.1 and the “The level of expressed mRNA in the presence of chemical substance/ (ratio to absence of chemical substance)” value (yeast gene YER057C) was 1.8. The “The level of expressed mRNA in the presence of chemical substance/The level of expressed mRNA in the absence of chemical substance” value (yeast gene YER107C) was 1.2, the “The level of expressed mRNA in the presence of chemical substance/The level of expressed mRNA in the absence of chemical substance” value (yeast gene YER130C) was 2.5 and the “The level of expressed mRNA in the presence of chemical substance/The level of expressed mRNA in the absence of chemical substance” value (yeast gene YFL028C) was 1.5. For the same molecule, the “The level of expressed mRNA in the presence of chemical substance/The level of expressed mRNA in the absence of chemical substance” value (yeast gene YFL043C) was 1.2, the “The level of expressed mRNA in the presence of chemical substance/ (in its absence), gene YGL035C” value (yeast gene YGL035C, ratio of DNA chip fluorescence intensity to that without chemical substance) was 1.2 and the “The level of expressed mRNA in the presence of chemical substance/ (in its absence), gene YGL115W” value (yeast gene YGL115W, ratio of DNA chip fluorescence intensity to that without chemical substance) was 1.2. For the same molecule, the “The level of expressed mRNA in the presence of chemical substance/ (ratio to absence of chemical substance)” value (yeast gene YGL115W) was 1.2, the “The level of expressed mRNA in the presence of chemical substance/The level of expressed mRNA in the absence of chemical substance” value (yeast gene YGL158W) was 1.1 and the “The level of expressed mRNA in the presence of chemical substance/ (ratio to absence), gene YGL187C” value (yeast gene YGL187C, mitochondria-located protein genes, 2 h culture with chemical) was 2.4. The “The level of expressed mRNA in the presence of chemical substance/ (in its absence), gene YGL205W” value (yeast gene YGL205W, ratio of DNA chip fluorescence intensity to that without chemical substance) was 9.1, the “The level of expressed mRNA in the presence of chemical substance/The level of expressed mRNA in the absence of chemical substance” value (yeast gene YGL229C) was 0.9 and the “The level of expressed mRNA in the presence of chemical substance/ in its absence, gene YGR062C” value (yeast gene YGR062C, energy system protein genes, 2 h culture with the chemical, ratio to control without chemical) was 1.1. For the same molecule, the “The level of expressed mRNA in the presence of chemical substance/ (ratio to absence), gene YGR062C” value (yeast gene YGR062C, mitochondria-located protein genes, 2 h culture with chemical) was 1.1, the “The level of expressed mRNA in the presence of chemical substance/ (in its absence), gene YGR096W” value (yeast gene YGR096W, ratio of DNA chip fluorescence intensity to that without chemical substance) was 1.0 and the “The level of expressed mRNA in the presence of chemical substance/The level of expressed mRNA in the absence of chemical substance” value (yeast gene YGR136W) was 1.8. For the same molecule, the “The level of expressed mRNA in the presence of chemical substance/The level of expressed mRNA in the absence of chemical substance” value (yeast gene YGR189C) was 1.7, the “The level of expressed mRNA in the presence of chemical substance/The level of expressed mRNA in the absence of chemical substance” value (yeast gene YGR213C) was 8.5 and the “The level of expressed mRNA in the presence of chemical substance/The level of expressed mRNA in the absence of chemical substance” value (yeast gene YGR257C) was 1.3. The “The level of expressed mRNA in the presence of chemical substance/ (in its absence), gene YGR287C” value (yeast gene YGR287C, ratio of DNA chip fluorescence intensity to that without chemical substance) was 1.1, the “The level of expressed mRNA in the presence of chemical substance/ (in its absence), gene YGR288W” value (yeast gene YGR288W, ratio of DNA chip fluorescence intensity to that without chemical substance) was 1.3 and the “The level of expressed mRNA in the presence of chemical substance/ (ratio to absence of chemical substance)” value (yeast gene YHL028W) was 2.5. For the same molecule, the “The level of expressed mRNA in the presence of chemical substance/ (ratio to absence of chemical substance)” value (yeast gene YHL046C) was 0.9, the “The level of expressed mRNA in the presence of chemical substance/The level of expressed mRNA in the absence of chemical substance” value (yeast gene YHR004C) was 1.6 and the “The level of expressed mRNA in the presence of chemical substance/The level of expressed mRNA in the absence of chemical substance” value (yeast gene YHR071W) was 1.0. The “The level of expressed mRNA in the presence of chemical substance/The level of expressed mRNA in the absence of chemical substance” value (yeast gene YHR139C) was 1.3, the “The level of expressed mRNA in the presence of chemical substance/The level of expressed mRNA in the absence of chemical substance” value (yeast gene YHR142W) was 1.3 and the “The level of expressed mRNA in the presence of chemical substance/ (in its absence), gene YHR210C” value (yeast gene YHR210C, ratio of DNA chip fluorescence intensity to that without chemical substance) was 1.2. For the same molecule, the “The level of expressed mRNA in the presence of chemical substance/ (in its absence), gene YIL006W” value (yeast gene YIL006W, ratio of DNA chip fluorescence intensity to that without chemical substance) was 0.9, the “The level of expressed mRNA in the presence of chemical substance/ (ratio to absence of chemical substance)” value (yeast gene YIL011W) was 0.8 and the “The level of expressed mRNA in the presence of chemical substance/The level of expressed mRNA in the absence of chemical substance” value (yeast gene YIL123W) was 1.0.
